Laboratory results taken from patent US20110044938A1 (NYCOMED GMBH, priority 2006, published 2011).

Legend:
[1] = tested on: subclones of RKO colon adenocarcinoma cells (RKOp27 or RKOp21) arrested by Ponasterone A; assay: Alamar Blue cell viability assay, cell cycle specific mode of action: cells arrested by ectopic p27Kip1 induced by Ponasterone A versus proliferating cells; type: cell-based; settings: Homo sapiens, RKO p27 induced (arrested) cells, 10 μM Ponasterone A, 72 hours, value = class bound given in Table A, read-out: −logIC50 RKO p27 induced (arrested) (converted)
Outline: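 Viability of proliferating versus Ponasterone A (10 μM)-arrested RKOp27/RKOp21 cells after 72 h compound exposure at 37° C, in quadruplicate. Read-out is Alamar Blue fluorescence (544/590 nm) normalised to untreated cells = 100%; values as −log IC50.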

[2] = tested on: RKO (RKOp27) human colon adenocarcinoma cells; assay: Alamar Blue cell viability assay, anti-proliferative/cytotoxic activity on proliferating RKO subclones; type: cell-based; settings: RKOp27, 72 h, RKO p27 uninduced (proliferating) cells, value = class bound given in Table A, read-out: −logIC50 RKO p27 uninduced (proliferating) (converted)
Outline: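 Alamar Blue fluorescence (ex 544, em 590 nm) after 72 h compound exposure at 37 °C, 5% CO2, normalised to untreated controls set at 100%. Cells were seeded at 5000 per well and dosed 24 h later with serial semi-logarithmic dilutions in 10% FCS DMEM, four replicates each. −log IC50 [mol/l] was derived from concentration-effect curves.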

IC50 [1] [nM]	SMILES	IC50 [2] [nM]
≥ 50100	Cc1cc(CNC(=O)OC2CCc3c(sc(NC(=O)CC(C)c4ccccc4)c3C#N)C2)no1 (stereo not drawn) [Example 295, (5-Methyl-isoxazol-3-ylmethyl)-carbamic acid 3-cyano-2-(3-phenyl-butanoylamino)-4,5,6,7-tetrahydro-benzo[b] thiophen-6-yl ester]	≤ 501
≥ 50100	CC(CC(=O)Nc1sc2c(c1C#N)CCC(OC(=O)NCC1CCCCO1)C2)c1ccccc1 (stereo not drawn) [Example 296, (Tetrahydropyran-2-ylmethyl)-carbamic acid 3-cyano-2-(3-phenyl-butanoylamino)-4,5,6,7-tetrahydro-benzo[b]thiophen-6-yl ester]	501 to 2000
≥ 10000	CC(CC(=O)Nc1sc2c(c1C#N)CCC(OC(=O)NCC1CCCO1)C2)c1ccccc1 (stereo not drawn) [Example 297, (Tetrahydro-furan-2-ylmethyl)-carbamic acid 3-cyano-2-(3-phenyl-butanoyl-amino)-4,5,6,7-tetrahydro-benzo[b]thiophen-6-yl ester]	501 to 2000
≥ 10000	Cc1n[nH]cc1CNC(=O)OC1CCc2c(sc(NC(=O)CC(C)c3ccccc3)c2C#N)C1 (stereo not drawn) [Example 298, (3-Methyl-1H-pyrazol-4-ylmethyl)-carbamic acid 3-cyano-2-(3-phenyl-butanoylamino)-4,5,6,7-tetrahydro-benzo[b]thiophen-6-yl ester]	≤ 501
≥ 50100	CC(CC(=O)Nc1sc2c(c1C#N)CCC(OC(=O)NC(C)c1ccnn1C)C2)c1ccccc1 (stereo not drawn) [Example 299, [1-(2-Methyl-2H-pyrazol-3-yl)-ethyl]-carbamic acid 3-cyano-2-(3-phenyl-butanoylamino)-4,5,6,7-tetrahydro-benzo[b]thiophen-6-yl ester]	≤ 501
≥ 50100	CC(CC(=O)Nc1sc2c(c1C#N)CCC(OC(=O)NCc1cccn1C)C2)c1ccccc1 (stereo not drawn) [Example 300, (1-Methyl-1H-pyrrol-2-ylmethyl)-carbamic acid 3-cyano-2-(3-phenyl-butanoylamino)-4,5,6,7-tetrahydro-benzo[b] thiophen-6-yl ester]	≤ 501
≥ 50100	Cc1nn(C)cc1CNC(=O)OC1CCc2c(sc(NC(=O)CC(C)c3ccccc3)c2C#N)C1 (stereo not drawn) [Example 301, (1,3-Dimethyl-1H-pyrazol-4-ylmethyl)-carbamic acid 3-cyano-2-(3-phenyl-butanoylamino)-4,5,6,7-tetrahydro-benzo[b]thiophen-6-yl ester]	≤ 501
≥ 50100	Cc1cc(CNC(=O)OC2CCc3c(sc(NC(=O)CC(C)c4ccccc4)c3C#N)C2)n(C)n1 (stereo not drawn) [Example 302, (2,5-Dimethyl-2H-pyrazol-3-ylmethyl)-carbamic acid 3-cyano-2-(3-phenyl-butanoylamino)-4,5,6,7-tetrahydro-benzo[b]thiophen-6-yl ester]	≤ 501
≥ 50100	CCn1nccc1CNC(=O)OC1CCc2c(sc(NC(=O)CC(C)c3ccccc3)c2C#N)C1 (stereo not drawn) [Example 303, (2-Ethyl-2H-pyrazol-3-ylmethyl)-carbamic acid 3-cyano-2-(3-phenyl-butanoylamino)-4,5,6,7-tetrahydro-benzo[b] thiophen-6-yl ester]	≤ 501
≥ 50100	CC(CC(=O)Nc1sc2c(c1C#N)CCC(COC(=O)NCc1ccccn1)C2)c1ccccc1 (stereo not drawn) [Example 304, Pyridin-2-ylmethyl-carbamic acid 3-cyano-2-(3-phenyl-butanoylamino)-4,5,6,7-tetrahydro-benzo[b] thiophen-6-ylmethyl ester]	≤ 501
≥ 50100	CC(CC(=O)Nc1sc2c(c1C#N)CCC(COC(=O)NCc1ccncc1)C2)c1ccccc1 (stereo not drawn) [Example 306, Pyridin-4-ylmethyl-carbamic acid 3-cyano-2-(3-phenyl-butanoyl-amino)-4,5,6,7-tetrahydro-benzo[b] thiophen-6-ylmethyl ester]	≤ 501
≥ 50100	CC(CC(=O)Nc1sc2c(c1C#N)CCC(COC(=O)NCCc1cccnc1)C2)c1ccccc1 (stereo not drawn) [Example 307, (2-Pyridin-3-yl-ethyl)-carbamic acid 3-cyano-2-(3-phenyl-butanoylamino)-4,5,6,7-tetrahydro-benzo[b]thiophen-6-ylmethyl ester]	≤ 501
≥ 50100	CC(CC(=O)Nc1sc2c(c1C#N)CCC(COC(=O)NCC1CCOCC1)C2)c1ccccc1 (stereo not drawn) [Example 308, (Tetrahydro-pyran-4-ylmethyl)-carbamic acid 3-cyano-2-(3-phenyl-butanoylamino)-4,5,6,7-tetrahydro-benzo[b]thiophen-6-ylmethyl ester]	≤ 501
≥ 50100	CC(CC(=O)Nc1sc2c(c1C#N)CCC(COC(=O)NC1CCOCC1)C2)c1ccccc1 (stereo not drawn) [Example 309, (Tetrahydro-pyran-4-yl)-carbamic acid 3-cyano-2-(3-phenyl-butanoylamino)-4,5,6,7-tetrahydro-benzo[b]thiophen-6-ylmethyl ester]	≤ 501
≥ 10000	CC(CC(=O)Nc1sc2c(c1C#N)CCC(COC(=O)NCCn1ccnc1)C2)c1ccccc1 (stereo not drawn) [Example 310, (2-Imidazol-1-yl-ethyl)-carbamic acid 3-cyano-2-(3-phenyl-butanoyl-amino)-4,5,6,7-tetrahydro-benzo[b]thiophen-6-ylmethyl ester]	501 to 2000
≥ 10000	CC(CC(=O)Nc1sc2c(c1C#N)CCC(COC(=O)NCc1nccn1C)C2)c1ccccc1 (stereo not drawn) [Example 311, (1-Methyl-1H-imidazol-2-ylmethyl)-carbamic acid 3-cyano-2-(3-phenyl-butanoylamino)-4,5,6,7-tetrahydro-benzo[b] thiophen-6-ylmethyl ester]	≤ 501
≥ 10000	CC(CC(=O)Nc1sc2c(c1C#N)CCC(COC(=O)NCc1cncn1C)C2)c1ccccc1 (stereo not drawn) [Example 312, (3-Methyl-3H-imidazol-4-ylmethyl)-carbamic acid 3-cyano-2-(3-phenyl-butanoylamino)-4,5,6,7-tetrahydro-benzo[b] thiophen-6-ylmethyl ester]	≤ 501
≥ 50100	CC(CC(=O)Nc1sc2c(c1C#N)CCC(COC(=O)NCc1ccnn1C)C2)c1ccccc1 (stereo not drawn) [Example 313, (2-Methyl-2H-pyrazol-3-ylmethyl)-carbamic acid 3-cyano-2-(3-phenyl-butanoylamino)-4,5,6,7-tetrahydro-benzo[b] thiophen-6-ylmethyl ester]	≤ 501
≥ 50100	Cc1cc(CNC(=O)OCC2CCc3c(sc(NC(=O)CC(C)c4ccccc4)c3C#N)C2)no1 (stereo not drawn) [Example 314, (5-Methyl-isoxazol-3-ylmethyl)-carbamic acid 3-cyano-2-(3-phenyl-butanoylamino)-4,5,6,7-tetrahydro-benzo[b] thiophen-6-ylmethyl ester]	≤ 501
≥ 50100	CC(CC(=O)Nc1sc2c(c1C#N)CCC(COC(=O)NCC1CCCO1)C2)c1ccccc1 (stereo not drawn) [Example 315, (Tetrahydrofuran-2-ylmethyl)-carbamic acid 3-cyano-2-(3-phenyl-butanoylamino)-4,5,6,7-tetrahydro-benzo[b]thiophen-6-ylmethyl ester]	501 to 2000
≥ 10000	CC(CC(=O)Nc1sc2c(c1C#N)CCC(COC(=O)NC(C)c1cccnc1)C2)c1ccccc1 (stereo not drawn) [Example 316, (1-Pyridin-3-yl-ethyl)-carbamic acid 3-cyano-2-(3-phenyl-butanoylamino)-4,5,6,7-tetrahydro-benzo[b] thiophen-6-ylmethyl ester]	≤ 501
